Source: patent US9896445B2, “Heterocyclic inhibitors of ERK1 and ERK2 and their use in the treatment of cancer” (Asana Biosciences, LLC, priority 2015, dated 2018)

Columns and labels:
ERK1 = target: T1, ERK1 (Homo sapiens, UniProt P27361); assay: ERK1 HTRF (biochemical) assay; settings: HTRF
T1 construct: purchased Jubilant Biosys
Experimental: ERK1 and ERK2 HTRF (Biochemical) Assays
These assays employed a homogeneous time resolved fluorescence (HTRF) technique. […] The plate was incubated at room temperature for 60 min with shaking. […] The IC50 values (half maximal inhibitory concentration values) were subsequently determined using a sigmoidal dose-response curve (variable slope) in GraphPad Prism® 5 software.

ERK2 = target: T2, ERK2 (Homo sapiens, UniProt P28482); assay: ERK2 HTRF (biochemical) assay; settings: HTRF
T2 construct: purchased Jubilant Biosys
T2 sequence (P28482 whole entry): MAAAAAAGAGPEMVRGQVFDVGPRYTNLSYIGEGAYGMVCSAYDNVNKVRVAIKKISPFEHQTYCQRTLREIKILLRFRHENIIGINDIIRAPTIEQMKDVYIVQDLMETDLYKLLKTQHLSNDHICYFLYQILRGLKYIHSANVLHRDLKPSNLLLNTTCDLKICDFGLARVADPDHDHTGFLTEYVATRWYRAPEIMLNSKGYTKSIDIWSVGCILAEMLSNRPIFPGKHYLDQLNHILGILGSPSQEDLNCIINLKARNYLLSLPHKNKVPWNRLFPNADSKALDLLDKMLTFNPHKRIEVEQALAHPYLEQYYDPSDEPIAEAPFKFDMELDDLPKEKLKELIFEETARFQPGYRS
Summary of the method: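 Compounds were tested as half-log dilutions from 0.0005 to 10 uM in Tris pH 7.5/MgCl2 buffer, with a substrate mix of 1 uM biotin-MBP peptide and 24 uM ATP and an enzyme mix of 25 nM ERK2. Reaction ran 60 min at room temperature. Phospho-MBP was detected by HTRF (Eu-anti-phospho-MBP/SA-APC, 665/620 nm), and IC50 was fitted with a variable-slope sigmoidal curve.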

T1 sequence (P27361 whole entry): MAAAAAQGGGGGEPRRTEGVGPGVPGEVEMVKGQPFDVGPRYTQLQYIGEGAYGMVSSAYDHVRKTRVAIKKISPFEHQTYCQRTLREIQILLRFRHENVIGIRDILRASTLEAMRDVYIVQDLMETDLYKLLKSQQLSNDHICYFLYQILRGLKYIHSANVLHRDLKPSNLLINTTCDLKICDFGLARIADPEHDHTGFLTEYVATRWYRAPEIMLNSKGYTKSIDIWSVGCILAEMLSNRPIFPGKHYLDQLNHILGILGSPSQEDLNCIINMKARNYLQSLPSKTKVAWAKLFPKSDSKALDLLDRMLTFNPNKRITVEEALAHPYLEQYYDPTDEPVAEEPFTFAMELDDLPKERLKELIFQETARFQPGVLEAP

Row | SMILES | IC50 (ERK1) [nM] | IC50 (ERK2) [nM]
1 | O=C(N[C@H](CO)c1cccc(Cl)c1)c1ccn(-c2nc(NC3CCOCC3)ncc2F)c1 [Compound 229, (S)-N-(1-(3-chlorophenyl)-2-hydroxyethyl)-1-(5-fluoro-2-((tetrahydro-2H-pyran-4-yl)amino)-pyrimidin-4-yl)-1H-pyrrole-3-carboxamide] | < 50 | ≤ 50
2 | Cc1cnc(Nc2ccc(F)cc2)cc1-n1cnc(C(=O)NC(CN)c2ccc(F)cc2)c1 (stereo not drawn) [Compound 230, N-(2-amino-1-(4-fluorophenyl)ethyl)-1-(2-((4-fluoro-phenyl)amino)-5-methylpyridin-4-yl)-1H-imidazole-4-carboxamide] | < 50 | ≤ 50
3 | Cc1cnc(Nc2ccc(Oc3ccccc3)cc2)nc1-n1cnc(C(=O)NC(CN)c2cccc(Cl)c2)c1 (stereo not drawn) [Compound 231, N-(2-amino-1-(3-chlorophenyl)ethyl)-1-(5-methyl-2-((4-phenoxyphenyl)amino)pyrimidin-4-yl)-1H-imidazole-4-carboxamide] | < 50 | ≤ 50
4 | Cc1cnc(Nc2ccc(F)cc2Cl)nc1-n1cnc(C(=O)NC(CN)c2cccc(Cl)c2)c1 (stereo not drawn) [Compound 232, N-(2-amino-1-(3-chlorophenyl)ethyl)-1-(2-((2-chloro-4-fluorophenyl)amino)-5-methyl-pyrimidin-4-yl)-1H-imidazole-4-carboxamide] | < 50 | ≤ 50
5 | Cc1cnc(NC2CCOC2)nc1-n1cnc(C(=O)NC(CN)c2cccc(Cl)c2)c1 (stereo not drawn) [Compound 235, N-(2-amino-1-(3-chlorophenyl)ethyl)-1-(5-methyl-2-((tetrahydrofuran-3-yl)amino)pyrimidin-4-yl)-1H-imidazole-4-carboxamide] | < 50 | ≤ 50
6 | Cc1cnc(Nc2ccc(F)cc2Cl)nc1-n1cnc(C(=O)N[C@H](CO)c2cccc(Cl)c2)c1 [Compound 241, (S)-1-(2-((2-chloro-4-fluorophenyl)-amino)-5-methyl-pyrimidin-4-yl)-N-(1-(3-chlorophenyl)-2-hydroxyethyl)-1H-imidazole-4-carboxamide] | < 50 | ≤ 50
7 | Cc1cnc(N[C@H]2CC[C@H](O)CC2)nc1-n1cnc(C(=O)N[C@H](CO)c2cccc(Cl)c2)c1 [Compound 242, N-((S)-1-(3-chlorophenyl)-2-hydroxyethyl)-1-(2-(((1r,4S)-4-hydroxycyclohexyl)amino)-5-methyl-pyrimidin-4-yl)-1H-imidazole-4-carboxamide] | < 50 | ≤ 50
8 | Cc1cnc(NC2CCOCC2)nc1-n1cnc(C(=O)NCc2ccccc2CCO)c1 [Compound 243, N-(2-(2-hydroxy-ethyl)benzyl)-1-(5-methyl-2-((tetrahydro-2H-pyran-4-yl)amino)pyrimidin-4-yl)-1H-imidazole-4-carboxamide] | < 50 | ≤ 50
9 | Cc1cnc(NC2CCS(=O)(=O)C2)nc1-n1cnc(C(=O)N[C@H](CO)c2cccc(Cl)c2)c1 (stereo partly drawn) [Compound 246, N-((S)-1-(3-chlorophenyl)-2-hydroxyethyl)-1-(2-((1,1-dioxido-tetrahydrothiophen-3-yl)amino)-5-methylpyrimidin-4-yl)-1H-imidazole-4-carboxamide] | < 50 | ≤ 50
10 | Cc1cnc(NC2CCOc3ccccc32)nc1-n1cnc(C(=O)N[C@H](CO)c2cccc(Cl)c2)c1 (stereo partly drawn) [Compound 247, N-((S)-1-(3-chlorophenyl)-2-hydroxyethyl)-1-(2-(chroman-4-ylamino)-5-methylpyrimidin-4-yl)-1H-imidazole-4-carboxamide] | < 50 | ≤ 50
11 | Cc1cnc(Nc2ccc(F)cc2)nc1-n1cnc(C(=O)N[C@H](CN)c2cccc(Cl)c2)c1 [Compound 248, (S)-N-(2-amino-1-(3-chlorophenyl)-ethyl)-1-(2-((4-fluorophenyl)amino)-5-methyl-pyrimidin-4-yl)-1H-imidazole-4-carboxamide] | < 50 | ≤ 50
12 | Cc1cnc(Nc2ccc(F)cc2)nc1-n1cnc(C(=O)N[C@@H](CN)c2cccc(Cl)c2)c1 [Compound 249, (R)-N-(2-amino-1-(3-chlorophenyl)-ethyl)-1-(2-((4-fluorophenyl)-amino)-5-methyl-pyrimidin-4-yl)-1H-imidazole-4-carboxamide] | 500 to 2500 | 100 to 500
13 | Cc1cnc(N[C@H]2CCOC2)nc1-n1cnc(C(=O)N[C@H](CN)c2cccc(Cl)c2)c1 [Example 255, N-((S)-2-amino-1-(3-chlorophenyl)-ethyl)-1-(5-methyl-2-(((S)-tetrahydro-furan-3-yl)amino)-pyrimidin-4-yl)-1H-imidazole-4-carboxamide] | < 50 | ≤ 50

Other lines, results leading:

Row | IC50 (ERK1) [nM] | IC50 (ERK2) [nM] | SMILES
14 | < 50 | ≤ 50 | Cc1cnc(NC2CCCCC2)nc1-n1cnc(C(=O)NC(CO)c2cccc(Cl)c2)c1 (stereo not drawn) [Compound 226, N-(1-(3-chloro-phenyl)-2-hydroxy-ethyl)-1-(2-(cyclohexylamino)-5-methylpyrimidin-4-yl)-1H-imidazole-4-carboxamide]
15 | < 50 | ≤ 50 | Cc1cnc(NC2CCOCC2)nc1-n1cnc(C(=O)NC(CO)c2cccs2)c1 (stereo not drawn) [Compound 233, N-(2-hydroxy-1-(thiophen-2-yl)ethyl)-1-(5-methyl-2-((tetrahydro-2H-pyran-4-yl)amino)-pyrimidin-4-yl)-1H-imidazole-4-carboxamide]
16 | < 50 | ≤ 50 | Cc1cnc(NC2CCOCC2)nc1-n1cnc(C(=O)NC(CO)c2ccsc2)c1 (stereo not drawn) [Compound 234, N-(2-hydroxy-1-(thiophen-3-yl)ethyl)-1-(5-methyl-2-((tetrahydro-2H-pyran-4-yl)amino)-pyrimidin-4-yl)-1H-imidazole-4-carboxamide]
17 | < 50 | ≤ 50 | Cc1cnc(NC2CCOCC2)nc1-n1cnc(C(=O)NC(CO)c2cccc(C(F)(F)F)c2)c1 (stereo not drawn) [Compound 237, N-(2-hydroxy-1-(3-(trifluoromethyl)-phenyl)ethyl)-1-(5-methyl-2-((tetrahydro-2H-pyran-4-yl)amino)-pyrimidin-4-yl)-1H-imidazole-4-carboxamide]
18 | < 50 | ≤ 50 | Cc1cccc(C(CO)NC(=O)c2cn(-c3nc(NC4CCOCC4)ncc3C)cn2)c1 (stereo not drawn) [Compound 238, N-(2-hydroxy-1-(m-tolyl)ethyl)-1-(5-methyl-2-((tetrahydro-2H-pyran-4-yl)amino)pyrimidin-4-yl)-1H-imidazole-4-carboxamide]
19 | < 50 | ≤ 50 | Cc1cnc(NC2CCC(F)(F)CC2)nc1-n1cnc(C(=O)N[C@H](CO)c2cccc(Cl)c2)c1 [Compound 240, (S)-N-(1-(3-chlorophenyl)-2-hydroxyethyl)-1-(2-((4,4-difluorocyclo-hexyl)amino)-5-methylpyrimidin-4-yl)-1H-imidazole-4-carboxamide]
20 | < 50 | ≤ 50 | Cc1cnc(NC2CCOC(C)C2)nc1-n1cnc(C(=O)N[C@H](CO)c2cccc(Cl)c2)c1 (stereo partly drawn) [Compound 251, N-((S)-1-(3-chlorophenyl)-2-hydroxyethyl)-1-(5-methyl-2-((2-methyltetrahydro-2H-pyran-4-yl)amino)pyrimidin-4-yl)-1H-imidazole-4-carboxamide]
21 | < 50 | ≤ 50 | Cc1cnc(NC2CCOCC2)nc1-n1cnc(C(=O)NC(c2cccc(Cl)c2)C(C)O)c1 (stereo not drawn) [Compound 253, N-(1-(3-chlorophenyl)-2-hydroxypropyl)-1-(5-methyl-2-((tetrahydro-2H-pyran-4-yl)amino)-pyrimidin-4-yl)-1H-imidazole-4-carboxamide]
